Measured values: article PMC6934184, “Selective DNA-PKcs inhibition extends the therapeutic index of localized radiotherapy and chemotherapy” (The Journal of Clinical Investigation, 2019)

Molecular target: T1, ZAP70 (Homo sapiens, UniProt P43403)
T1 construct: purchased Thermo Fisher Scientific (Life Technologies) SelectScreen
Assay: SelectScreen Z'LYTE
Assay type: biochemical
How it was run: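 Percent values come from Thermo SelectScreen profiling of NU5455, combining activity and binding assays. CSF1R was run in Z'LYTE format at Km app ATP, and CAMK1 in Adapta format with ATP listed at 10.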

T1 sequence (P43403 whole entry): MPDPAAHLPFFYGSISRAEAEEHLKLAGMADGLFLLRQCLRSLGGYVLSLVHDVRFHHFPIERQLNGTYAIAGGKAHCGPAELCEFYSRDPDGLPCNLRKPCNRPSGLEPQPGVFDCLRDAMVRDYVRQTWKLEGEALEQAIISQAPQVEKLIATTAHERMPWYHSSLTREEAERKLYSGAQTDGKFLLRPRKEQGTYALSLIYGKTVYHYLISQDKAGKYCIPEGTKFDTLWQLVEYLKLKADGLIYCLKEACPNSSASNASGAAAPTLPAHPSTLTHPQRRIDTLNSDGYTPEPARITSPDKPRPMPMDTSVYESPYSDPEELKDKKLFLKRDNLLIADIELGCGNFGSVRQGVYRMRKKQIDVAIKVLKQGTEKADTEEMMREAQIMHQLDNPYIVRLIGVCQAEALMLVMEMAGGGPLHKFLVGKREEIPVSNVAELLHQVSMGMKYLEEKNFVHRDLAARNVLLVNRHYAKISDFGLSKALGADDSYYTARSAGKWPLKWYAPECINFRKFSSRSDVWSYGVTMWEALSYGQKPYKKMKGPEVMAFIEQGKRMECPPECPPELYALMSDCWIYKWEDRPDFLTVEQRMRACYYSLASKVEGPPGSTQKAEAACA

`CN(C(=O)CN1CCOCC1)c1ccc2sc3c(-c4cccc5c(=O)cc(N6CC7CCC(C6)O7)oc45)cccc3c2c1` [NU5455] gave an inhibition at 1 µM of 0.3%.
